The text below walks through data of patent publication US20050049220A1, “Dosing regimen for Flaviviridae therapy” (priority 2003, published 2005).

As a reminder, the EC90 is the concentration needed for an effect of 90%.

For data set [1], the system named is HCV replicon. Kind of data set: HCV replicon assay: HCV RNA by Q-RT-PCR, 4 days exposure. Type of data set: cell-based, hepatitis C virus (HCV). Conditions: Hepatitis C virus. On the procedure: Antiviral screening assays can be done in the same media without G418 as follows: in order to keep cells in logarithmic growth phase, seed cells in a 96-well plate at low density, for example 1000 cells per well. Add the test compound immediate after seeding the cells and incubate for a period of 3 to 7 days at 37° C. in an incubator. Media is then removed, and the cells are prepared for total nucleic acid extraction (including replicon RNA and host RNA). Replicon RNA can then be amplified in a Q-RT-PCR protocol, and quantified accordingly. […] This value is called DeltaCt (ΔCt or DCt).
This value is called DeltaCt (ΔCt or dCt).
In general terms: Replicon systems follow genome replication, usually without infectious particles.

Data set [2] deals with HCV replicon cells. Nature of the data set: Prevention studies with natural ribo- or 2′-deoxy nucleosides. Type of data set: cell-based, human. Conditions: test compound at 96 h EC90 value; nucleosides at 50 μM.
Data set [3] has as its system Huh-7 cells. Kind of data set: Cellular rRNA levels / cytotoxicity in HCV replicon cells. Conditions: 100 μM; 4 days; HCV replicon transfected Huh-7 cells. From the text:
In a typical setting, a compound might reduce both the host RNA polymerase activity and the replicon-encoded polymerase activity. Therefore, quantification of rRNA (or any other host RNA polymerase I product) or beta-actin mRNA (or any other host RNA polymerase II) and comparison with RNA levels of the no-drug control is a relative measurement of the effect of the test compound on host RNA polymerases.
With the availability of both the HCV ΔCt data and the rRNA ΔCt, a specificity parameter can be introduced. This parameter is obtained by subtracting both ΔCt values from each other.
IFN-α-2a and ribavirin were tested over a range of concentrations for their ability to reduce the HCV RNA levels in exponentially growing replicon cells after 4 days of exposure as described (Stuyver, L. et al. “A ribonucleoside analogue that blocks the replication of bovine viral diarrhea and hepatitis C viruses in culture” Antimicrob. Agents Chemother. 2003, 47, 244-254).
Gemcitabine was dissolved in DMSO and added to the culture media of a cellular model system of Huh7 cells harboring self-replicating HCV RNA, at final concentrations ranging from […]. In such experiments, one way to express the antiviral effectiveness of a compound is to subtract the threshold reverse-transcriptase polymerase chain reactions (RT-PCR) cycle of the test compound with the average threshold RT-PCR cycle of the negative control. This value is called DeltaCt (ΔCt or dCt). With the availability of both the HCV ΔCt data and the rRNA ΔCt, a specificity parameter can be introduced. This parameter is obtained by subtracting both ΔCt values from each other.

Data set [4] relates to HCV replicon RNA. Nature of the data set: 7-day dynamics of HCV RNA levels. It counts as cell-based, hepatitis C virus (HCV). Conditions: 100 μM.
The test system of data set [5] is HCV replicon cells (Huh-7). Nature of the data set: 7-day cell growth dynamics, trypan-blue cell count. On the procedure:
FIG. 2 is a graphical depiction of the dynamics of cell growth and HCV RNA levels after exposure to control anti-HCV compounds. HCV replicon cells were seeded at approximately 10^4 cells per well in a 24-well plate. Over a 7-day period, cells were counted daily, and rRNA and HCV RNA were quantified by Q-RT-PCR. A: IFN-α-2a at 100 IU/ml; B: ribavirin at 100 μM. ●: cell proliferation in absence of compound; ◯: cell proliferation in presence of compound; ▾: HCV RNA levels in untreated cells; ∇: HCV RNA levels in the presence of compound. The curves shown are averages of 3 independent experiments.
Therefore, experiments were conducted to monitor HCV RNA levels and the cell growth dynamics over a 7-day period.
The dynamics of HCV replicon cells exposed to these inhibitors (at their EC90 value) was monitored over a 7-day period.

Data set [6] deals with HCV. Conditions: cited from earlier work.
In data set [7] the test system is HCV replicon RNA. Kind of data set: Replicon RNA copy number per cell. Conditions: 7-day period, treated versus no-treatment controls. It counts as cell-based, hepatitis C virus (HCV). The procedure:
FIG. 4 is a graphical depiction of the log10 changes for replicon RNA levels per cell. The plots were obtained from data collected in FIGS. 2 and 3, in which log10 changes for cell count and replicon RNA levels were subtracted from each other. A. Control antiviral compounds. ●: no drug control; ▾: IFN-α-2a at 100 IU/ml; ▪: ribavirin at 100 μM. B. Selection of the most important anti-metabolites. ●: no drug control; ▾: dFdC at 50 nM; ▪: CP-C at 25 μM; ♦: CPE-C at 2.5 μM; ▴: PALA at 10 μM; ●: PZF at 5 μM.
To express the specificity of the antiviral action of the control compounds versus the anti-metabolites, the log10 change in replicon RNA copy number per cell and per day was calculated from the above experiments.

Structures are written as SMILES. Where two headings read alike, the source gives them in different places.

Turning to `NC(=O)c1ncn([C@@H]2O[C@H](CO)[C@@H](O)[C@H]2O)n1` [Ribavirin, 1-β-D-ribofuranosyl-1-1,2,4-triazole-3-carboxamide], the log reduction at 10 µM in data set [1] (96 h, 10 μM, corrected for rRNA, read-out: Corrected HCV RNA log10 reduction at 10 μM) is 0.16 ± 0.1. In addition, the log reduction at 100 µM turned out to be 1.96 ± 0.28 in data set [1] (96 h, 4 days, HCV replicon transfected Huh-7 cells, read-out: log10 RNA reduction at 100 μM, HCV) and 1.05 ± 0.29 in data set [1] (96 h, corrected for rRNA, read-out: Corrected HCV RNA log10 reduction at 100 μM). The EC90 in data set [1] (96 h incubation, read-out: Corrected HCV RNA EC90) is approximately 100 µM. Also, the “prevention of antiviral and cytostatic effects by natural nucleosides” value in data set [2] was 2′-deoxyguanosine and guanosine prevented the effects. Further, the “log10 RNA reduction at 100 μM, rRNA” value in data set [3] is reported as 0.91 ± 0.12 log10. Also, the “HCV RNA reduction on day 7 compared to untreated controls” value in data set [4] turned out to be 2.08 log10. For the same molecule, the “log10 reduction in cell growth at day 7 compared to day 0” value in data set [5] (100 μM) is recorded as 0.22±0.1 log10. Moreover, in data set [5] (100 μM), the “log10 reduction in cell growth compared to the no treatment control on day 7” value came to 1.53 log10. For the same molecule, the “effect on cell proliferation” value in data set [5] (7-day period, at 96 h EC90 value (ribavirin 100 μM, IFN 100 IU/ml)) is “completely inhibited cell proliferation”. Further, the “effect on serum levels of HCV-RNA” value in data set [6] (HCV patients) is given as “does not lower”. Also, in data set [6], the “patients with serum amino transferase levels reduced to normal” value is 40%. Moreover, the “change in replicon RNA copy number per cell (words)” value in data set [7] is “only minimally”; in data set [7] (listed as ribavirin), “changed only marginally”.
